EP0236542B1, “Novel organic phosphinic acid compounds” (CYANAMID CANADA INC., priority 1980, dated 1982)
Like-named read-outs stand apart in the source and are kept apart here.

Test: pKa determination in 75% isopropanol
Type: physicochemical
Conditions: product as isolated (assay about 85-88% phosphinic acid)

| Structure (SMILES) | pKa | pKa (read-out: pKa) |
| --- | --- | --- |
| CC(CC(C)(C)C)CP(=O)(O)CC(C)CC(C)(C)C (centres unmarked) [di-2,4,4 -trimethylpentylphosphinic acid] | 6.03 ± 0.05 | – |
| CC(CC(C)(C)C)CP(=O)(O)C1CCCCC1 (centres unmarked) [2,4,4 -trimethylpentyl, cyclohexylphosphinic acid] | – | 6.04 |
